Patent US6462086B1, “Non-malignant disease treatment with Ras antagonists” (Ramot University Authority for Applied Research and …, priority 1999, dated 2002)
Entries after “also recorded” stand apart in the source; their conditions may differ.

Tests used:
[1] = test system: EAN in Lewis rats; test: Experimental autoimmune neuritis (EAN) in Lewis rats, clinical score and rotarod; format: in vivo, rat
[2] = test system: splenocytes from ICR mice; format: cell-based, mouse; conditions: 10 and 50 μM FTS
Experimental: An examination was made as to whether the effect of FTS on Ras levels was of functional importance in splenocytes prepared from 2 ICR mice. Stimulation of ^3H-thymidine incorporation into DNA was used as measure of splenocyte proliferation in the presence of lipopolysaccharide (LPS) or concanavalin A (ConA), and in the presence of 0, 10 and 50 μM FTS. The methods used are detailed below. […] Also, FTS had no effect on basal ^3H-thymidine incorporation into DNA. The concentrations of FTS at which inhibition of lymphocyte cell growth were observed reflect expected levels of the drug when given in animals at doses of 5-10 mg/kg.
Mice were killed by cervical dislocation and spleens removed with sterile precautions and placed in disposable plastic Petri dishes containing Dulbecco's phosphate-buffered saline (DPBS). […] Cells from each microculture were harvested on fibroglass filters with multiharvester and counted in liquid scintillation β counter.
Mitogens and antigens were diluted to appropriate concentrations in the incubation medium and added to the wells at the beginning of incubation period to give a final concentration of 1.0 μg/ml lipopolysaccharide (LPS), 1.0 μg/ml Concanavalin A (ConA) or 10 μg/ml beta2-Glycoprotein I (beta2-GPI). Spontaneous proliferation (without mitogen or antigen) was also assessed. […]
The results are expressed as the mean value of stimulation index per group. […]

[3] = test system: MRL/lpr mice; test: Lymphadenopathy and splenomegaly in MRL mice; format: in vivo, mouse
Experimental: The development of generalized lymphadenopathy in the MRL/lpr mice (saline and FTS-treated) was evaluated by palpation of axillary and inguinal lymph nodes. The maximal lymph nodes score in each mouse was 4, when both axillary and inguinal lymph nodes (in both sides) were palpable. At 18 weeks of age the mice were sacrificed and the spleens and lymph nodes (axillary, inguinal and cervical) were removed and weighed.

[4] = Distribution of 3H-FTS in plasma and liver; format: in vivo, rat; conditions: 5 mg/Kg
Experimental: For each set of experiments, FTS was prepared in chloroform (0.1 M stock solution) and maintained at −70° C. The chloroform was removed from the stock solution by a stream of nitrogen prior to use, and FTS was then dissolved either in DMSO (in vitro experiments) or in ethanol (in vivo experiments). The FTS/DMSO solutions were diluted with DMEM/10% fetal calf serum (FCS) to yield a 100×drug stock solution containing 10% DMSO. A portion of this solution was applied to the cells at a dilution of 1:100. The FTS/ethanol solution was alkalinized by the addition of 1N NaOH, then diluted with phosphate-buffered saline (PBS) to obtain a solution of 1.0 mg FTS/ml (pH 8.0, 0.5% ethanol). This solution (1-1.5 ml per rat) was used in the in vivo experiments. In a separate set of experiments, the distribution of FTS in the plasma and in the liver was assayed by the use of 3H -FTS (12.5 ci/mmole, ARC, St. Louis Mo.). […] The estimated concentration FTS in the liver at peak times (20 to 60 min) was 29 μM. Drug levels in the liver declined thereafter to the level of 0.5 μM at 24 h.

[5] = test system: CR-EAE in SJL/J mice; test: Chronic-relapsing EAE (CR-EAE) by transfer of PLP-sensitized lymphocytes, clinical signs; format: in vivo, mouse
[6] = test system: MRL/lpr mice; test: Disease activity in MRL/lpr mice (proteinuria, lymphadenopathy, grip strength; Example 4); format: in vivo, mouse
Experimental: One of the important measures of disease activity in MRL/lpr mice is proteinuria. Levels of proteinura were measured weekly by means of dip-sticks in MRL/lpr and Mrl/++ mice treated daily with FTS or with vehicle alone. Significant proteinuria developed in the MRL/lpr treated with vehicle compared to the MRL/++ groups. […] Other systemic measures of disease activity including lymphadenopathy and lymphocyte proliferation were normalized in FTS treated MRL/lpr mice (not shown).

[7] = Solubility in water and saline; format: physicochemical
Text: In these formulations, the alkyl gallate, etc., is present in an amount of from 0.02% to about 0.05%, and the citric or phosphoric acid is present in an amount of about 0.01%. These formulations are suitable for parenteral administraiton.
In one embodiment of the present invention, both of these shortcomings are overcome by formulating the agent in cyclodextrin. This technology is the subject of U.S. Pat. Nos. 5,681,828 and 5,935,941. Cyclodextrins are a group of compounds consisting of, or derived from, the three parent cyclodextrins—alpha-, beta- and gamma-cyclodextrins. Alpha-, beta- and gamma-cyclodextrins are simple oligosaccharides consisting of six, seven or eight anhydroglucose residues, respectively, connected to macrocyles by alpha (1 to 4) glycosidic bonds. Each of the glucose residues of a cyclodextrin contains one primary (O6) and two secondary hydroxyls (O2 and O3) which can be substituted, for example, methylated. Many cyclodextrin preparations in practical use are mixtures of chemically individual derivatives in which only a part of hydroxy groups were substituted and which differ in number and position of these substituents.

[8] = FTS 5 mg/kg/day i.p. days 0-10 only

## CC(C)=CCC/C(C)=C/CC/C(C)=C/CSc1ccccc1C(=O)O [FTS, farnesyl thiosalicylic acid]
[1]; [8]
  recovery: recovered faster than the other groups
  severity of disease: equal severity to controls
[1]; FTS 5 mg/kg/day i.p. days 0-28
  clinical score / rotarod, peak of disease: significantly ameliorated the peak of disease
[1]; FTS days 0-10 only
  rats with brief relapses of clinical signs during recovery: Three of the 5 rats
[1]; treatment from day 10
  recovery: recovered significantly faster
[1]; treatment from day 10, ±SE, n=10, control 4.12±0.61
  Mean clinical scores for days 15-19: 2.74±0.66
[2]
  LPS and ConA induced splenocyte proliferation (stimulation index): significant reduction
  basal 3H-thymidine incorporation into DNA: no effect
[3]; MRL/++ mice, untreated 0.13±0.01
  spleen weight: 0.19 ± 0.03 g
[3]; MRL/lpr mice
  lymphadenopathy (palpation score): significantly delayed; also recorded: significantly less
  weight of excised lymph nodes: significant effect of FTS; also recorded: significantly less
[3]; MRL/lpr mice, 17 weeks, mean±SE, untreated 0.54±0.04
  spleen weight: 0.41 ± 0.04 g
[4]
  estimated concentration of FTS in the liver at peak times: 29 µM
  peak liver levels, % of the injected dose: 1.75%
  peak plasma levels, % of the injected dose: 10.7%
  peak times in the liver: 20 to 60 min
[4]; Wistar, rat, liver, other: injected (type of injection not given), read-out: drug level in the liver at 24 h
  concentration at 24 h: 0.5 µM
[5]; FTS 5 mg/kg/day from day of cell transfer
  clinical course of CR-EAE (FIG. 2): milder form of CR-EAE
[5]; FTS 5 mg/kg/day, vehicle group 30%
  mortality in CR-EAE: none of them died
[5]; follow-up 2-3 months, n=7, control 9
  total relapses of the paralytic disease: 5
[6]; MRL/lpr mice
  lymphadenopathy and lymphocyte proliferation: normalized
  weakness as measured by grip strength on a horizontal bar: normalized by FTS treatment
[6]; MRL/lpr mice treated daily
  proteinuria (dip-sticks, FIG. 15): did not develop significant proteinuria
[7]
  solubility in water / saline: insoluble in water
